# From paper PMC5762315, “Inhibition of polo-like kinase 4 (PLK4): a new therapeutic option for rhabdoid tumors and pediatric medulloblastoma” (Oncotarget, 2017)
# Several values for one entry are separate records, joined by “and”; a condition that tells them apart may be missing. Equal values may be shown once.
# Columns and labels:
# Assay in all cases: biochemical
# Format in all cases: biochemical
# various kinases [1] = target: various kinases (Homo sapiens, UniProt P10721); conditions: KIT
# various kinases [2] = target: various kinases (Homo sapiens, UniProt O96013); conditions: PAK4
# various kinases [3] = target: various kinases (Homo sapiens, UniProt P43405); conditions: kinase SYK; ZLYTE
# various kinases [4] = target: various kinases (Homo sapiens, UniProt P27361); conditions: MAPK3 (ERK1)
# various kinases [5] = target: various kinases (Homo sapiens, UniProt O95819); conditions: MAP4K4 (HGK)
# various kinases [6] = target: various kinases (Homo sapiens, UniProt P53778); conditions: MAPK12 (p38 gamma)
# Sequence of various kinases (Homo sapiens, UniProt P53778) (P53778 whole entry): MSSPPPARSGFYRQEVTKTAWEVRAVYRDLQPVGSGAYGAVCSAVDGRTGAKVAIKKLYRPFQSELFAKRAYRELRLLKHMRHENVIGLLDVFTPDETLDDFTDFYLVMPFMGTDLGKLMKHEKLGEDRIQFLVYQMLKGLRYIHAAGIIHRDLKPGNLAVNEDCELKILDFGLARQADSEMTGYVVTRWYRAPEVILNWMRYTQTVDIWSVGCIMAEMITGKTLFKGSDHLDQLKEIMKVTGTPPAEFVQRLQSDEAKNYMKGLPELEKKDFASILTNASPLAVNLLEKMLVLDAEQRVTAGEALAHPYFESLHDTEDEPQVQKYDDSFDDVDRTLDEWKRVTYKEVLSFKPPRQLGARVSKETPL
# various kinases [7] = target: various kinases (Homo sapiens, UniProt P28482); conditions: MAPK1 (ERK2)
# Sequence of various kinases (Homo sapiens, UniProt P28482) (P28482 whole entry): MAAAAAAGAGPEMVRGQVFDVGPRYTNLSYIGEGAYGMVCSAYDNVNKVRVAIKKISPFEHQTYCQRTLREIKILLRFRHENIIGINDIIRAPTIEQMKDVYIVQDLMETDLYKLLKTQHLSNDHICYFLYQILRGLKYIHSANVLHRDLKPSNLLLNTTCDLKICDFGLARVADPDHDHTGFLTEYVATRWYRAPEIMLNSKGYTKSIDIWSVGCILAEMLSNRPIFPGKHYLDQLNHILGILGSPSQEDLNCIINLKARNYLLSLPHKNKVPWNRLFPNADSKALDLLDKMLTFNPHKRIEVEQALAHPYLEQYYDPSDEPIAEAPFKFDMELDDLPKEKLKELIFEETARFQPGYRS
# various kinases [8] = target: various kinases (Homo sapiens, UniProt P10721, V559D); conditions: KIT V559D
# various kinases [9] = target: various kinases (Homo sapiens, UniProt P52564); conditions: MAP2K6 (MKK6)
# various kinases [10] = target: various kinases (Homo sapiens, UniProt P10721, V560G); conditions: KIT V560G
# various kinases [11] = target: various kinases (Homo sapiens, UniProt Q9NR20); conditions: DYRK4
# Sequence of various kinases (Homo sapiens, UniProt Q9NR20) (Q9NR20 whole entry): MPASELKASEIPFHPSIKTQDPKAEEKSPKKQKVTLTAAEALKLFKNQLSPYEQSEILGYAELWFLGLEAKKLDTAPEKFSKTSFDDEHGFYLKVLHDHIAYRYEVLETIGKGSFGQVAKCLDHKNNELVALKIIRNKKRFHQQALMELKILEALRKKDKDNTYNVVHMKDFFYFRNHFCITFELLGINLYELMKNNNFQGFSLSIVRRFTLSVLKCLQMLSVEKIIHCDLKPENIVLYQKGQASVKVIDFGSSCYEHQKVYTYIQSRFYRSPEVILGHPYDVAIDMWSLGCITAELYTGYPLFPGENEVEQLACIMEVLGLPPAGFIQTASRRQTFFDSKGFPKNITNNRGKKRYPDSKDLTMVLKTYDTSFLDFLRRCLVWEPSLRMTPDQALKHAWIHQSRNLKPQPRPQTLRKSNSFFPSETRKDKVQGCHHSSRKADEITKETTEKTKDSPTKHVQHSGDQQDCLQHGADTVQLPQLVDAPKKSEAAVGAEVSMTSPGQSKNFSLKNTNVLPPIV
# various kinases [12] = target: various kinases (Homo sapiens, UniProt P16234, V561D); conditions: PDGFRA V561D
# various kinases [13] = target: various kinases (Homo sapiens, UniProt Q14289); conditions: kinase PTK2B (FAK2); ZLYTE
# Sequence of various kinases (Homo sapiens, UniProt Q14289) (Q14289 whole entry): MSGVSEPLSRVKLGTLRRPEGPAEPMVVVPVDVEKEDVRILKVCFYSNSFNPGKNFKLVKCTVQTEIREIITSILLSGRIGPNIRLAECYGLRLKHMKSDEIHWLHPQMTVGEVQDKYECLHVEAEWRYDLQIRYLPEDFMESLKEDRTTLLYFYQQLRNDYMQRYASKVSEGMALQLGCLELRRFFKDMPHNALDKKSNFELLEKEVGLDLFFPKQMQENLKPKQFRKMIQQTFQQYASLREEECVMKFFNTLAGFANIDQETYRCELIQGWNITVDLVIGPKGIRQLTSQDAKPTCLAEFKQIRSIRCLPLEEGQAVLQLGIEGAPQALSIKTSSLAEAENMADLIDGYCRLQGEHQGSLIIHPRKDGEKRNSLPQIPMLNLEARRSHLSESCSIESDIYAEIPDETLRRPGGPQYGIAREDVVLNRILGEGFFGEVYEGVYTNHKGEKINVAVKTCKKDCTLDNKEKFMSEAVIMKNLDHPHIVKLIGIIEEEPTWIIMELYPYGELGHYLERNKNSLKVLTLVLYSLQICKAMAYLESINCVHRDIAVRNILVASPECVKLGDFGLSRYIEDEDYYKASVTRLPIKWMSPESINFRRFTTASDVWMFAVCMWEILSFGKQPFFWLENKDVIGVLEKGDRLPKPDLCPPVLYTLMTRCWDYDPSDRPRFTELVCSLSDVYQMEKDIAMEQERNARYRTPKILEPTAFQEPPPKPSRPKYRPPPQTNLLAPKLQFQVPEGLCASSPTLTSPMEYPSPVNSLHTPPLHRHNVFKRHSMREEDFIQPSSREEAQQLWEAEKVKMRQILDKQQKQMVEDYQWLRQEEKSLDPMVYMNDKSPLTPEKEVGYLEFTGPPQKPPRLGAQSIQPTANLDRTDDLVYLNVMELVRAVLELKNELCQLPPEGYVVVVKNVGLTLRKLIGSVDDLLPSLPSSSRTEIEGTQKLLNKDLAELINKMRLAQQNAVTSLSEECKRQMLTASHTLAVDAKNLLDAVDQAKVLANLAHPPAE
# various kinases [14] = target: various kinases (Homo sapiens, UniProt Q02750); conditions: MAP2K1 (MEK1)
# various kinases [15] = target: various kinases (Homo sapiens, UniProt P06213); conditions: INSR
# various kinases [16] = target: various kinases (Homo sapiens, UniProt Q06187); conditions: BTK
# Sequence of various kinases (Homo sapiens, UniProt Q06187) (Q06187 whole entry): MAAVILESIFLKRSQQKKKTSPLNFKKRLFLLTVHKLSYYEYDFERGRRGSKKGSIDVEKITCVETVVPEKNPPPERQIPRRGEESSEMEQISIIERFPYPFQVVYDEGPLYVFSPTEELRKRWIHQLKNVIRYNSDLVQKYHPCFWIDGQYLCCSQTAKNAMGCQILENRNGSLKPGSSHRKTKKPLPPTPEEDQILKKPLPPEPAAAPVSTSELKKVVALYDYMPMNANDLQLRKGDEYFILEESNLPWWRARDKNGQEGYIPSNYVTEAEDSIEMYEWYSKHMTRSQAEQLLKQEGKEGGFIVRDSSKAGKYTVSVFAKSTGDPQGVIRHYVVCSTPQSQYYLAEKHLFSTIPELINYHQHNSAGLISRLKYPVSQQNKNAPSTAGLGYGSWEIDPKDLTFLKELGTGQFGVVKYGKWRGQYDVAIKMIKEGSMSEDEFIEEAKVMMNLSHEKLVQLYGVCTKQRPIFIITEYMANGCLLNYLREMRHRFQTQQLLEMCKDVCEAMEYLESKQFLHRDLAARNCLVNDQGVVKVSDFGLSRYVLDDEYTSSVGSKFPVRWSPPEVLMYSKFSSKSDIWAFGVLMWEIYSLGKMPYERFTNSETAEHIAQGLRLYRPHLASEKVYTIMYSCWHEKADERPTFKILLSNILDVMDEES
# various kinases [17] = target: various kinases (Homo sapiens, UniProt P25098); conditions: ADRBK1 (GRK2)
# various kinases [18] = target: T1, various kinases (Homo sapiens, UniProt Q13470); conditions: kinase TNK1; ZLYTE
# T1 sequence (Q13470 1-666): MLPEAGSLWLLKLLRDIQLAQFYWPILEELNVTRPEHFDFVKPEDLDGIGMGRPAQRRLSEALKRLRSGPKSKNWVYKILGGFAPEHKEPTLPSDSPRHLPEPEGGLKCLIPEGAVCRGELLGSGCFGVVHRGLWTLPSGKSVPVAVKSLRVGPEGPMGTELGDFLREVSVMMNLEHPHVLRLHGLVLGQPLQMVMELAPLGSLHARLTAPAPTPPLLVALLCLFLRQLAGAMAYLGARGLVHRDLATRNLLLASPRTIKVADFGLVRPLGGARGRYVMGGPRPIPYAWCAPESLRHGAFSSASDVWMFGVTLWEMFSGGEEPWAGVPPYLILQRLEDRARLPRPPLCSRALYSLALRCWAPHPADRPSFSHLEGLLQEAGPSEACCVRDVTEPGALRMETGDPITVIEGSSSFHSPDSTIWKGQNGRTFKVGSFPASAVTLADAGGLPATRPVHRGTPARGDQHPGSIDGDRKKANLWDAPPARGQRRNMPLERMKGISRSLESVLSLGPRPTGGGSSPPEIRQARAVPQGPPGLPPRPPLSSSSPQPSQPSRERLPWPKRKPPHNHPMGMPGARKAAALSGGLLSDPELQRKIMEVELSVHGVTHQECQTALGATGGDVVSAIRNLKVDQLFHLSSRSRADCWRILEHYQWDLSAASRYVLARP
# various kinases [19] = target: various kinases (Homo sapiens, UniProt O75582); conditions: kinase RPS6KA5 (MSK1); ZLYTE
# Sequence of various kinases (Homo sapiens, UniProt O75582) (O75582 whole entry): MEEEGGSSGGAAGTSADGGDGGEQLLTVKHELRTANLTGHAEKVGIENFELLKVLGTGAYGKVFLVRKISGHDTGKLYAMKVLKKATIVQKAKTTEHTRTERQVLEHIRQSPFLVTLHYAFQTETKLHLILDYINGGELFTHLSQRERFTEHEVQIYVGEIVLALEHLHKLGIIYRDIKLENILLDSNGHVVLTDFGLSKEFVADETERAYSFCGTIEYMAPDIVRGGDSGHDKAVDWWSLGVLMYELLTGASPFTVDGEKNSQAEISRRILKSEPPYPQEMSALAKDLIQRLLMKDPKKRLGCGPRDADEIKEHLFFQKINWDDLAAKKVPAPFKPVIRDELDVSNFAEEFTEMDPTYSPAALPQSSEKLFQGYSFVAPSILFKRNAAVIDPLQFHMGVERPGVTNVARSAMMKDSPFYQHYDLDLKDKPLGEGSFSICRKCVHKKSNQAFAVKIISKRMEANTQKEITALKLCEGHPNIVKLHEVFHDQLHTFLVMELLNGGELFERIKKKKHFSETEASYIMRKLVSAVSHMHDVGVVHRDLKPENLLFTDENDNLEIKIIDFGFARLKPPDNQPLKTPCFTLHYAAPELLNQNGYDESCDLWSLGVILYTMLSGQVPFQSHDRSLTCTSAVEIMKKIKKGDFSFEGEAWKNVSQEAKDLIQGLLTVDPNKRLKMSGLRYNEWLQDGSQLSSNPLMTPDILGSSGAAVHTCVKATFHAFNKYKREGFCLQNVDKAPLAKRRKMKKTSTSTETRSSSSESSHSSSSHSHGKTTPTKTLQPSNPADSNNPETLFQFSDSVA
# various kinases [20] = target: various kinases (Homo sapiens, UniProt Q9Y4K4); conditions: MAP4K5 (KHS1)
# various kinases [21] = target: various kinases (Homo sapiens, UniProt O00418); conditions: EEF2K
# Sequence of various kinases (Homo sapiens, UniProt O00418) (O00418 whole entry): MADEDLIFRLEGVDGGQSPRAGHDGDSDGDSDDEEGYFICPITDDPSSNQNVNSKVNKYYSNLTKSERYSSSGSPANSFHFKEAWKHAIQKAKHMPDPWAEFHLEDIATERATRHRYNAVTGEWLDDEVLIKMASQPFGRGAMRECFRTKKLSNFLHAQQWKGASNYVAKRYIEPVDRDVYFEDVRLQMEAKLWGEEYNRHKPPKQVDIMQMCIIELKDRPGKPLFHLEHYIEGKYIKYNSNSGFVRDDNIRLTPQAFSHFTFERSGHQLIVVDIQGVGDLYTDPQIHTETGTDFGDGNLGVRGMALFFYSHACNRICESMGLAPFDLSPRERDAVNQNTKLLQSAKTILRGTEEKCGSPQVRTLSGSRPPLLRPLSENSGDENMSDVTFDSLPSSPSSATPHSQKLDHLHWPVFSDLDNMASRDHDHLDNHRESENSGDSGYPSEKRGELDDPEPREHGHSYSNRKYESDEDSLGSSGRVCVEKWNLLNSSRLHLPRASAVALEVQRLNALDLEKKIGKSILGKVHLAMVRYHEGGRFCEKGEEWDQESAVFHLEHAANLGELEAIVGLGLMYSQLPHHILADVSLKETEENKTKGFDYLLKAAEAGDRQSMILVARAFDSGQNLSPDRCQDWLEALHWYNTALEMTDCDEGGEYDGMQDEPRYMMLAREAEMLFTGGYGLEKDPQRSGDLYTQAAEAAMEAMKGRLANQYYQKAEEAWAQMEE
# various kinases [22] = target: various kinases (Homo sapiens, UniProt P29322); conditions: EPHA8
# various kinases [23] = target: various kinases (Homo sapiens, UniProt O00506); conditions: kinase STK25 (YSK1); ZLYTE
# Sequence of various kinases (Homo sapiens, UniProt O00506) (O00506 whole entry): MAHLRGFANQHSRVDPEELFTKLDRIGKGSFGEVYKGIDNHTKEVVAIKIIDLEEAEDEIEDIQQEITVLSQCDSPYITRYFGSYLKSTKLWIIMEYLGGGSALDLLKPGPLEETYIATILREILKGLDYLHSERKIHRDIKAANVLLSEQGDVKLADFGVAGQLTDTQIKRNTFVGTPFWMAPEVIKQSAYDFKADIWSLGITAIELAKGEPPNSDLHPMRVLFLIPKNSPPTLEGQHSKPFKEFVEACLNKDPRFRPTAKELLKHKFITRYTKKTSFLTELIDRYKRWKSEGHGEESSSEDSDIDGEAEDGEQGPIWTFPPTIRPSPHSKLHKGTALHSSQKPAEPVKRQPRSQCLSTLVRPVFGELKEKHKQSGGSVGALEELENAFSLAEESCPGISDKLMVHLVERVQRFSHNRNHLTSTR
# various kinases [24] = target: various kinases (Homo sapiens, UniProt P07333); conditions: CSF1R (FMS)
# For % Inhibition Average in this document: test concentration or dose not given here.
# For % Inhibition Duplicate #1 in this document: test concentration or dose not given here.
# For % Inhibition Duplicate #2 in this document: test concentration or dose not given here.
smiles,measurement,setting,value
COc1ccc2c(c1)[C@]1(C[C@H]1c1ccc3c(/C=C/c4ccc(CN5C[C@@H](C)O[C@@H](C)C5)cc4)n[nH]c3c1)C(=O)N2 [CFI-400945],% Inhibition,various kinases [1],9% and 7%
same,% Inhibition,various kinases [2],10% and 9%
same,% Inhibition Average,various kinases [3],11%
same,% Inhibition Duplicate #1,various kinases [3],11%
same,% Inhibition Duplicate #2,various kinases [3],11%
same,% Inhibition,various kinases [4],4%
same,% Inhibition,various kinases [5],9% and 13%
same,% Inhibition,various kinases [6],-3% and -2%
same,% Inhibition,various kinases [7],9% and 7%
same,% Inhibition,various kinases [8],9% and 10%
same,% Inhibition,various kinases [9],4% and -2%
same,% Inhibition,various kinases [10],11% and 7%
same,% Inhibition,various kinases [11],3% and 2%
same,% Inhibition,various kinases [12],5% and 4%
same,% Inhibition Average,various kinases [13],3%
same,% Inhibition Duplicate #1,various kinases [13],3%
same,% Inhibition Duplicate #2,various kinases [13],3%
same,% Inhibition,various kinases [14],9%
same,% Inhibition,various kinases [15],4% and 10%
same,% Inhibition,various kinases [16],6% and 3%
same,% Inhibition,various kinases [17],5% and 4%
same,% Inhibition Average,various kinases [18],30%
same,% Inhibition Duplicate #1,various kinases [18],26%
same,% Inhibition Duplicate #2,various kinases [18],34%
same,% Inhibition Average,various kinases [19],3%
same,% Inhibition Duplicate #1,various kinases [19],2%
same,% Inhibition Duplicate #2,various kinases [19],4%
same,% Inhibition,various kinases [20],12% and 23%
same,% Inhibition,various kinases [21],2% and 3%
same,% Inhibition,various kinases [22],-5% and 0%
same,% Inhibition Average,various kinases [23],-3%
same,% Inhibition Duplicate #1,various kinases [23],0%
same,% Inhibition Duplicate #2,various kinases [23],-6%
same,% Inhibition,various kinases [24],14% and 15%
